Results reported in PMC10780633, “Novel Multi-Target Agents Based on the Privileged Structure of 4-Hydroxy-2-quinolinone” (Molecules, 2023).
Where “and” joins values, the source holds several entries; their conditions need not be identical. Identical values can stand only once.

Columns and labels:
soybean lipoxygenase = target: T1, soybean lipoxygenase (Glycine max, UniProt P08170); assay: Soybean LOX inhibition in vitro (UV absorbance-based assay); format: biochemical; conditions: for Inhibition of Soybean Lipoxygenase % at 0.1 mM / inhibition at 100 µM: 0.1 mM
T1 construct: purchased Sigma Chemical, Co. (St. Louis, MO, USA)
T1 sequence (P08170 1-839): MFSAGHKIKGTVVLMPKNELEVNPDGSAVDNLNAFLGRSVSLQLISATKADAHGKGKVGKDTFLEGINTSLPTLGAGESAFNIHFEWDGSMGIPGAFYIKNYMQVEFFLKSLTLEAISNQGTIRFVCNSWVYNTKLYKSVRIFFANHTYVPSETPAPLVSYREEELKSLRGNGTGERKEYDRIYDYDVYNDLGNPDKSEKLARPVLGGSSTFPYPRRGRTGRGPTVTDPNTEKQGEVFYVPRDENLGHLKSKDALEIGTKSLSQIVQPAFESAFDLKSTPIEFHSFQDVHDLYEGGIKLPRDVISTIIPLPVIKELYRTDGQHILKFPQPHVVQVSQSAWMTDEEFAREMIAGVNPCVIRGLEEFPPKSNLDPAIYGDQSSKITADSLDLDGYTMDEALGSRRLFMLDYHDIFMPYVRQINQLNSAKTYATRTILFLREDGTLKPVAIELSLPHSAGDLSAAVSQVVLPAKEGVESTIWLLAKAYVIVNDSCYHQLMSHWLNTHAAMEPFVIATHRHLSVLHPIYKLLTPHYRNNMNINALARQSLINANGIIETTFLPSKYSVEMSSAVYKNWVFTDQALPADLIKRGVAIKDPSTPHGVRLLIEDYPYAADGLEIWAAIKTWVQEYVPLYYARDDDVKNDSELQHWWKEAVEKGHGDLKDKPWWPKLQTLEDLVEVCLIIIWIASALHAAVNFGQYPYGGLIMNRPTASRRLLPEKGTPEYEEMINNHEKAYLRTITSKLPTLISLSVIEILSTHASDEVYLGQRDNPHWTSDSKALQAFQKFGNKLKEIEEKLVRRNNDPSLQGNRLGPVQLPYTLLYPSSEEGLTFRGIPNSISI
Description: For this study, the UV absorbance-based soybean LOX assay was used.
The assay for the determination of the inhibition of soybean LOX was performed according to the methods of Hadjipavlou-Litina et al., which we have also used in our previous works.

[1] = ABTS radical cation decolorization assay; conditions: 0.1 mM
Description: (§1) In this work, the carboxamides 3a–3u, the quinolinone–cinnamic or benzoic acid hybrids 11a–11g and the reverse amides 16a–16c were tested for their antioxidant activity via five in vitro techniques; (i) the interaction with the stable free radical 2,2-diphenyl-1-picrylhydrazyl (DPPH); (ii) the inhibition of lipid peroxidation; (iii) the hydroxyl radical scavenging ability; (iv) the 2,2-azino-bis(3-ethylbenzothiazoline-6-sulfonic acid (ABTS) radical cation (ABTS·^+) reduction; and (v) the superoxide anion radical scavenging ability.
The experimental technique used in this section was performed according to the methods of Pontiki et al.. The results were compared to the appropriate standard inhibitor Trolox.

[2] = Interaction with the stable free radical DPPH (reducing activity); conditions: 100 μM
Description: as §1

[3] = Non-enzymatic superoxide anion radical scavenging assay (PMS); conditions: 0.1 mM
Description: as §1
The experimental technique used for this assay was performed according to our previous works. Caffeic acid was used as an appropriate standard.

[4] = Inhibition of lipid peroxidation of linoleic acid induced by AAPH radical; conditions: 100 μM
Description: as §1
The assay for the determination of the inhibition of linoleic acid peroxidation induced by the free radical initiator […](2-amidinopropane) dihydrochloride (AAPH) was performed according to the methods of Hadjipavlou-Litina et al., which we have also used in our previous works.

[5] = Competition with DMSO for hydroxyl radicals; conditions: 0.1 mM
Description: as §1
The assay was performed according to the methods of Pontiki et al. Trolox was used as a reference compound [78].

Compound | Inhibition of Soybean Lipoxygenase % at 0.1 mM (soybean lipoxygenase) | ABTS% (ABTS radical cation decolorization) [1] | Interaction with the Free Radical DPPH (%) ([2]; 20 min) | Interaction with the Free Radical DPPH (%) ([2]; 60 min) | PMS% (superoxide anion radical scavenging) [3] | Inhibition of Lipid Peroxidation of Linoleic Acid Induced by AAPH Radical (%) [4] | inhibition at 100 µM (soybean lipoxygenase) | OH% (hydroxyl radical scavenging) [5] | IC50 (soybean lipoxygenase)
4-hydroxy-N-(2-hydroxy-1-phenylethyl)-1-methyl-2-oxo-1,2-dihydroquinoline-3-carboxamide [Compound 3p] | no | no | 19.5% | 6.6% | no | 100% |  |  | 
4-hydroxy-N-(2-hydroxy-1-phenylethyl)-2-oxo-1-phenyl-1,2-dihydroquinoline-3-carboxamide [Compound 3q] | 24.0% | no | 23.8% | 10.0% | no | 100% |  |  | 
O=C(O)/C=C/c1ccc(O)c(O)c1 [Caffeic acid, reference compound] |  |  |  |  | 23% |  |  |  | 
CCCNC(=O)c1c(O)c2ccccc2n(-c2ccccc2)c1=O [Compound 3b, 4-hydroxy-2-oxo-1-phenyl-N-propyl-1,2-dihydroquinoline-3-carboxamide] |  | 35.5% | 2.7% | 11.8% | 84.6% | 100% | 45% | 40.8% | 
Cn1c(=O)c(C(=O)NCCO)c(O)c2ccccc21 [Compound 3c, 4-hydroxy-N-(2-hydroxyethyl)-1-methyl-2-oxo-1,2-dihydroquinoline-3-carboxamide] |  | 25.6% | 3.3% | 10.7% | 76.9% | 100% |  | 39.8% | 52 µM
Cn1c(=O)c(C(=O)Nc2ccc(O)cc2)c(O)c2ccccc21 [Compound 3f, 4-hydroxy-N-(4-hydroxyphenyl)-1-methyl-2-oxo-1,2-dihydroquinoline-3-carboxamide] |  | 77.3% | 39.3% | 48.6% |  | 100% |  | 67.7% | 49 µM
O=C(Nc1ccncc1)c1c(O)c2ccccc2n(-c2ccccc2)c1=O [Compound 3u, 4-hydroxy-2-oxo-1-phenyl-N-(pyridin-4-yl)-1,2-dihydroquinoline-3-carboxamide] | inactive and no | no | 19.3% | 8.3% | no | 16.4% |  |  | 
CCn1c(=O)c(C(=O)NCCNC(=O)c2ccc(OC(C)=O)cc2)c(O)c2ccccc21 [Compound 11a, 4-((2-(1-ethyl-4-hydroxy-2-oxo-1,2-dihydroquinoline-3-carboxamido)ethyl)carbamoyl)phenyl acetate] |  |  | 1.0% | 4.4% |  | 89.0% |  |  | 61 µM
CCn1c(=O)c(C(=O)NCCNC(=O)c2cc(OC)c(OC(C)=O)c(OC)c2)c(O)c2ccccc21 [Compound 11b, 4-((2-(1-ethyl-4-hydroxy-2-oxo-1,2-dihydroquinoline-3-carboxamido)ethyl)carbamoyl)-2,6-dimethoxyphenyl acetate] |  |  | 3.0% | no |  | 93.8% |  |  | 70 µM
CCn1c(=O)c(C(=O)NCCNC(=O)c2ccccc2)c(O)c2ccccc21 [Compound 11c, N-(2-benzamidoethyl)-1-ethyl-4-hydroxy-2-oxo-1,2-dihydroquinoline-3-carboxamide] |  |  | 2.0% | 2.0% |  | 91.0% |  |  | 57.5 µM
CCn1c(=O)c(C(=O)NCCNC(=O)/C=C/c2ccc(OC(C)=O)cc2)c(O)c2ccccc21 [Compound 11d, (E)-4-(3-((2-(1-ethyl-4-hydroxy-2-oxo-1,2-dihydroquinoline-3-carboxamido)ethyl)amino)-3-oxoprop-1-en-1-yl)phenyl acetate] |  |  | 3.0% | 2.0% |  | 94.0% | 5% |  | 
CCn1c(=O)c(C(=O)NCCNC(=O)/C=C/c2ccc(OC(C)=O)c(OC)c2)c(O)c2ccccc21 [Compound 11e, (E)-4-(3-((2-(1-ethyl-4-hydroxy-2-oxo-1,2-dihydroquinoline-3-carboxamido)ethyl)amino)-3-oxoprop-1-en-1-yl)-2-methoxyphenyl acetate] |  |  | 3.0% | 5.0% |  | 97.0% |  |  | 52 µM and 52.5 µM
CCn1c(=O)c(C(=O)NCCNC(=O)/C=C/c2ccc(OC)cc2)c(O)c2ccccc21 [Compound 11f, (E)-1-ethyl-4-hydroxy-N-(2-(3-(4-methoxyphenyl)acrylamido)ethyl)-2-oxo-1,2-dihydroquinoline-3-carboxamide] |  |  | 2.0% | 4.0% |  | 93.0% |  |  | 70 µM
CCn1c(=O)c(C(=O)NCCNC(=O)/C=C/c2ccccc2)c(O)c2ccccc21 [Compound 11g, (E)-N-(2-cinnamamidoethyl)-1-ethyl-4-hydroxy-2-oxo-1,2-dihydroquinoline-3-carboxamide] |  |  | no | 2.0% |  | 97.0% |  |  | 85.5 µM
CCCC(=O)Nc1c(O)c2ccccc2n(C)c1=O [Compound 16a, N-(4-hydroxy-1-methyl-2-oxo-1,2-dihydroquinolin-3-yl)butyramide] |  |  | 24.0% | 31.0% |  | 83.0% |  |  | 81 µM
Cc1ccc(C(=O)Nc2c(O)c3ccccc3n(C)c2=O)cc1 [Compound 16b, N-(4-hydroxy-1-methyl-2-oxo-1,2-dihydroquinolin-3-yl)-4-methylbenzamide] |  |  | 27.0% | 32.0% |  | 88.0% |  |  | 100 µM
Cn1c(=O)c(NC(=O)c2ccccc2O)c(O)c2ccccc21 [Compound 16c, 2-hydroxy-N-(4-hydroxy-1-methyl-2-oxo-1,2-dihydroquinolin-3-yl)benzamide] |  |  | 25.0% | 28.0% |  | 88.0% |  |  | 82.5 µM
C[C@H](Cc1ccc(O)c(O)c1)[C@@H](C)Cc1ccc(O)c(O)c1 [NDGA, nordihydroguaiaretic acid, reference compound] |  |  | 83.0% | 94.0% |  |  |  |  | 
Cc1c(C)c2c(c(C)c1O)CCC(C)(C(=O)O)O2 (stereo not drawn) [Trolox, reference compound] |  | 93.0% |  |  |  | 88.0% |  | 82.0% | 
